# Data published in patent publication US20100322882A1, “SOLUBILIZING AGENTS FOR ACTIVE OR FUNCTIONAL ORGANIC COMPOUNDS” (ISP INVESTMENTS INC., priority 2006, published 2010).
# Experiments:
# [1] = Solubility of solid organic sunscreens in solubilizers (25° C.); type: physicochemical; settings: for Solubility of MBC in the solvent: solute 4-Methylbenzylidene camphor (MBC); for Solubility of E-517 (Avobenzone) in the solvent: solute Avobenzone (E-517); for Solubility of BEMT in the solvent: solute Bis-ethylhexyloxyphenol methoxyphenyl triazine (BEMT); for Solubility of EHT in the solvent: solute Ethylhexyl triazone (EHT); for Solubility of E-567 (Oxybenzone) in the solvent: solute Oxybenzone (E-567)
# Method: Upon cooling to 25° C., a few seed crystals (<10 mg) of the sunscreen were added to hasten equilibration. The solutions were stored in the dark in a constant temperature chamber at 25° C. Each was sampled weekly, and the ca. 0.1 g sample was filtered through a 0.45μ syringe filter and analyzed by GLC or HPLC, calibrated using standard solutions, until the value for wt. % of solute was constant.
# [2] = UV absorption spectra of sunscreens in selected solvents; type: physicochemical; parameters: λmax of E-517 / λmax of E-567 / λmax of BEMT / λmax of EHT: unit not given here; settings: for ε of BEMT at λmax / λmax of BEMT: 10 mg/L BEMT in the solvent; for ε of E-517 at λmax / λmax of E-517: 10 mg/L E-517 in the solvent; for ε of E-567 at λmax / λmax of E-567: 10 mg/L E-567 in the solvent; for ε of EHT at λmax / λmax of EHT: 10 mg/L EHT in the solvent; for ε of MBC at λmax / λmax of MBC: 10 mg/L MBC in the solvent
# Method: Solutions containing 10 mg/L of sunscreen in selected solvents were prepared, and their UV spectra were measured using a Cary 1E UV-Visible spectrophotometer. […] They are also higher in 2-phenylethyl cyclohexanoate for Escalol® 517 and Escalol® 567.
# [3] = second (shorter wavelength) band
Solubility of MBC in the solvent [1] [wt. %],Solubility of E-517 (Avobenzone) in the solvent [1] [wt. %],Solubility of BEMT in the solvent [1] [wt. %],Solubility of EHT in the solvent [1] [wt. %],Solubility of E-567 (Oxybenzone) in the solvent [1] [wt. %],ε of BEMT at λmax ([2]; first (longer wavelength) band),λmax of BEMT ([2]; first (longer wavelength) band),"ε of BEMT at λmax [2, 3]","λmax of BEMT [2, 3]",ε of E-517 at λmax ([2]; first (longer wavelength) band),λmax of E-517 ([2]; first (longer wavelength) band),ε of E-567 at λmax ([2]; first (longer wavelength) band),λmax of E-567 ([2]; first (longer wavelength) band),"ε of E-567 at λmax [2, 3]","λmax of E-567 [2, 3]","ε of EHT at λmax [2, 3]","λmax of EHT [2, 3]","ε of MBC at λmax [2, 3]","λmax of MBC [2, 3] [nm]",Compound
39,21,13,6,38,,,,,,,,,,,,,,,CCC(=O)OCCOc1ccccc1 [2-phenoxyethyl propionate]
42,24,27,16,39,,,,,,,,,,,,,,,"O=C(OCCc1ccccc1)C1CC1 [2-phenylethyl cyclopropanoate, 2-Phenylethyl Cyclopropanecarboxylate]"
26,8,5,3,11,,,,,,,,,,,,,,,"CC(C)CCCCCCCOC(=O)C(C)(C)C [isodecyl neopentanoate, reference compound]"
,24,32,10,39,,,,,,,,,,,,,,,CCCC(=O)OCc1ccccc1 [benzyl butyrate]
44,23,26,10,38,,,,,,,,,,,,,,,CCC(=O)OC(C)c1ccccc1 (stereo not shown) [1-phenylethyl propionate]
36,19,23,8,27,,,,,,,,,,,,,,,CCCCCCCC(=O)OCCc1ccccc1 [2-phenylethyl octanoate]
44,26,26,14,44,,,,,,,,,,,,,,,CC(=O)OCCc1ccccc1 [2-phenylethyl acetate]
,,,,,"(43,800)",347,"(40,800)",313,"(33,400)",358,"(9,260)",328,"(9,310)",298,"(117,000)",313,"(22,000)",301,C12-15 alkyl benzoate [reference compound]
41,22,27,10,35,"(48,000)",345,"(42,900)",312,"(34,100)",359,"(9,600)",327,"(14,300)",287,"(123,000)",312,"(23,600)",298,"CCCCC(=O)OCCc1ccccc1 [2-phenylethyl pentanoate, 2-Phenylethyl Pentanoate]"
37,20,32,10,32,"(49,000)",345,,,"(34,500)",359,"(12,100)",326,,,"(47,300)",317,"(10,400)",317,"O=C(OCCc1ccccc1)C1CCCCC1 [2-phenylethyl cyclohexanoate, 2-Phenylethyl Cyclohexanecarboxylate]"
34,17,18,4,25,,,,,,,,,,,,,,,CCCCC(CC)C(=O)OCCc1ccccc1 (stereo not shown) [2-phenylethyl 2-ethylhexanoate]
35,17,18,6,27,,,,,,,,,,,,,,,CCCCCCCCOC(=O)OCc1ccccc1 [benzyl octyl carbonate]
30,11,2,8,30,,,,,,,,,,,,,,,CC(O)C(=O)OCc1ccccc1 (stereo not shown) [benzyl lactate]

Compound,Solubility of MBC in the solvent [1] [wt. %],Solubility of E-517 (Avobenzone) in the solvent [1] [wt. %],Solubility of BEMT in the solvent [1] [wt. %],Solubility of EHT in the solvent [1] [wt. %],Solubility of E-567 (Oxybenzone) in the solvent [1] [wt. %],ε of BEMT at λmax ([2]; first (longer wavelength) band),λmax of BEMT ([2]; first (longer wavelength) band),"ε of BEMT at λmax [2, 3]","λmax of BEMT [2, 3]",ε of E-517 at λmax ([2]; first (longer wavelength) band),λmax of E-517 ([2]; first (longer wavelength) band),ε of E-567 at λmax ([2]; first (longer wavelength) band),λmax of E-567 ([2]; first (longer wavelength) band),"ε of E-567 at λmax [2, 3]","λmax of E-567 [2, 3]","ε of EHT at λmax [2, 3]","λmax of EHT [2, 3]","ε of MBC at λmax [2, 3]","λmax of MBC [2, 3] [nm]"
CCC(=O)OCCc1ccccc1 [2-phenylethyl propionate],44,25,33,12,40,,,,,,,,,,,,,,
CC(C)(C)C(=O)OCCc1ccccc1 [2-phenylethyl neopentanoate],38,19,28,5,29,,,,,,,,,,,,,,
"CCCCCCCCOC(=O)OCCCCCCCC [dioctyl carbonate, reference compound]",29,13,10,7,16,,,,,,,,,,,,,,
